Source: ChEMBL document CHEMBL4033668, “Inhibitors of cytochrome P450 (CYP) 1B1” (Eur J Med Chem, 2017)

Key:
[1] = target: T1, Cytochrome P450 1A1 (Homo sapiens, UniProt P04798); assay: Competitive inhibition of […] CYP1A1 expressed in supersomes coexpressing NADPH-CYP reductase using 7-Ethoxyresorufin as substrate measured every 5 mins for 30 mins in presence of NADPH by fluorescence assay; assay type: ADME; settings: read-out: Ki
T1 sequence (P04798 whole entry): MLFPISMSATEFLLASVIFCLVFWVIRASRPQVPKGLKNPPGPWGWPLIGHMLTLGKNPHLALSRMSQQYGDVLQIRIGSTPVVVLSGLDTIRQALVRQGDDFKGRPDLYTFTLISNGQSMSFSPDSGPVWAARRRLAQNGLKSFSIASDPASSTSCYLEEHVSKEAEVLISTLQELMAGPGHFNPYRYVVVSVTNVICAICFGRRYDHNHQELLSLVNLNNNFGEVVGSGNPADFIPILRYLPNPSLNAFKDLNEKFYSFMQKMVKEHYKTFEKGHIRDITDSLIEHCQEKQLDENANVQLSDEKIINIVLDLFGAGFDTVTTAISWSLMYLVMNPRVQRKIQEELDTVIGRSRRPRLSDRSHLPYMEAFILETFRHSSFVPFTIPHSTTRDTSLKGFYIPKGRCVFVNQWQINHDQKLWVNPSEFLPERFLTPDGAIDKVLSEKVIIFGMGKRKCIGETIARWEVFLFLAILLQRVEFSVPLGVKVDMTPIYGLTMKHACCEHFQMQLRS

[2] = target: T2, Cytochrome P450 1A2 (Homo sapiens, UniProt P05177); assay: Competitive inhibition of […] CYP1A2 expressed in supersomes coexpressing NADPH-CYP reductase using 7-Ethoxyresorufin as substrate measured every 5 mins for 30 mins in presence of NADPH by fluorescence assay; assay type: ADME
T2 sequence (P05177 whole entry): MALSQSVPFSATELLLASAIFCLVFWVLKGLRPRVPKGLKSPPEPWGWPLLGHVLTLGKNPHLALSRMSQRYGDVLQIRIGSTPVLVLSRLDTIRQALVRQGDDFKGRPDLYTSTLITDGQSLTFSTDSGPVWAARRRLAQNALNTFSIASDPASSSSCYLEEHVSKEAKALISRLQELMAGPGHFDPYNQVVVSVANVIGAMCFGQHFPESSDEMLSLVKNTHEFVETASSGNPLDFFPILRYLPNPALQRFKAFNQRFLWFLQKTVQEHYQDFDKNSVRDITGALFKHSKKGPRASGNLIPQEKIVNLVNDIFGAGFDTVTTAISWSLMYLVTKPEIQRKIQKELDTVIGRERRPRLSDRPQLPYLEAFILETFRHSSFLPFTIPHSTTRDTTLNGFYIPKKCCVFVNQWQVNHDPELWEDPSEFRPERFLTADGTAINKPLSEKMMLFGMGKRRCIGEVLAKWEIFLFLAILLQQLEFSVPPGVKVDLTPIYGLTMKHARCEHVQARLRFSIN

[3] = target: T3, Cytochrome P450 1B1 (Homo sapiens, UniProt Q16678); assay: Competitive inhibition of […] CYP1B1 expressed in supersomes coexpressing NADPH-CYP reductase using 7-Ethoxyresorufin as substrate measured every 5 mins for 30 mins in presence of NADPH by fluorescence assay
T3 sequence (Q16678 whole entry): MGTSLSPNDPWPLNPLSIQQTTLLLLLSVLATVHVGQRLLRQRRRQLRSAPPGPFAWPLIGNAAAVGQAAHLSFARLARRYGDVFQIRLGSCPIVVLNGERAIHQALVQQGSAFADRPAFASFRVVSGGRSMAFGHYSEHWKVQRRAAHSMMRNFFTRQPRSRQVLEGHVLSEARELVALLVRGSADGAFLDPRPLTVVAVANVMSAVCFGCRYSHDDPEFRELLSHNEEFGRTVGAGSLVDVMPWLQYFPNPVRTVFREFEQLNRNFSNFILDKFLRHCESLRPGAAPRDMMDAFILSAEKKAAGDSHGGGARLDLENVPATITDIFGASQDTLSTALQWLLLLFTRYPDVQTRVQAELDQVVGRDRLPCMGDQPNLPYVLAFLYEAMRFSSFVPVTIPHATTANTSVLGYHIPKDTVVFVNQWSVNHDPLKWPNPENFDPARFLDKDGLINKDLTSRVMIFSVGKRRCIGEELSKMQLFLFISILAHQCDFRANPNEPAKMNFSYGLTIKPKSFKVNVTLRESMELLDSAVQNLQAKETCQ

[4] = target: T3, Cytochrome P450 1B1; assay: Inhibition of recombinant human CYP1B1 expressed in supersomes using ethoxyresorufin as substrate after 20 mins in presence of NADPH by fluorescence assay
[5] = target: T2, Cytochrome P450 1A2; assay: Inhibition of recombinant human CYP1A2 expressed in Escherichia coli DH5alpha using ethoxyresorufin as substrate preincubated for 3 mins followed by NADPH addition measured after 10 mins by spectrofluorometric assay; assay type: ADME
[6] = target: T3, Cytochrome P450 1B1; assay: Inhibition of CYP1B1 in TCDD-exposed human MCF-7 cells using ethoxyresorufin as substrate after 20 mins in presence of NADPH by Lineweaver-Burk linear regression plot analysis
[7] = target: T3, Cytochrome P450 1B1; assay: Inhibition of CYP1B1 in TCDD-exposed human MCF-7 cells using ethoxyresorufin as substrate after 20 mins in presence of NADPH by spectrofluorimetric analysis
[8] = target: T1, Cytochrome P450 1A1; assay: Inhibition of CYP1A1 in TCDD-exposed human MCF-7 cells using ethoxyresorufin as substrate after 20 mins in presence of NADPH by spectrofluorimetric analysis; assay type: ADME
[9] = Selectivity ratio of IC50 for CYP1A1 in TCDD-exposed human MCF-7 cells to IC50 for CYP1B1 in TCDD-exposed human MCF-7 cells
[10] = Competitive inhibition of […] CYP1 expressed in supersomes coexpressing NADPH-CYP reductase using 7-Ethoxyresorufin as substrate measured every 5 mins for 30 mins in presence of NADPH by fluorescence assay; assay type: ADME
[11] = target: T1, Cytochrome P450 1A1; assay: Mixed type inhibition of human hepatic microsomes CYP1A1 expressed in supersomes coexpressing NADPH-cytochrome P450 reductase using 7-Ethoxyresorufin as substrate measured every 30 secs for 3 mins in presence of NADPH by spectrofluorometric analysis; assay type: ADME
[12] = target: T3, Cytochrome P450 1B1; assay: Mixed type inhibition of human hepatic microsomes CYP1B1 expressed in supersomes coexpressing NADPH-cytochrome P450 reductase using 7-Ethoxyresorufin as substrate measured every 30 secs for 3 mins in presence of NADPH by spectrofluorometric analysis

Work on `CCCCCc1cc(O)c2c(c1)OC(C)(C)c1ccc(C)cc1-2` [CANNABINOL] yielded a Ki [1] of 0.541 µM, a Ki [2] of 0.079 µM and a Ki [3] of 0.148 µM.

With `C=C(C)C1CC=C(CO)CC1` (configuration not stated) the Ki [4] was 2 µM.

`COc1cc(/C=C/c2ccc(OC)cc2OC)cc(OC)c1` gave an IC50 [5] of 3 µM.

With `Br.Cc1ccc(C(=O)Cn2c3c(sc2=N)CCCC3)cc1` the Ki [6] was 0.00438 µM, the IC50 [7] was 0.0206 µM and the IC50 [8] was 1.5 µM. The “Ratio IC50” value [9] was 73.

`CCCCCc1cc(O)c2c(c1)OC(C)(C)[C@@H]1CCC(C)=C[C@@H]21` [DRONABINOL] gave a Ki [10] of 2.47 to 7.54 µM.

With `COc1ccc2[nH]cc(CCNC(C)=O)c2c1` [MELATONIN] the Ki [11] was 59 µM and the Ki [12] was 14 µM.
